Measurements as given in US20100305098A1, “METHODS OF USE” (priority 2007, published 2010).

Experiments:
A3 = biological target: T1, A3 (Homo sapiens, UniProt P0DMS8); experiment: FLIPR functional screen; assay type: cell-based; details: antagonist mode
T1 construct: purchased Millipore (outsourced screen)

CXCR3 = biological target: T2, CXCR3 (Homo sapiens, UniProt P49682); experiment: FLIPR functional screen; assay type: cell-based; details: antagonist mode
T2 construct: Millipore

CCK2 = biological target: T3, CCK2 (Homo sapiens, UniProt P32239); experiment: FLIPR functional screen; assay type: cell-based; details: antagonist mode
T3 construct: Millipore
T3 sequence (P32239 whole entry): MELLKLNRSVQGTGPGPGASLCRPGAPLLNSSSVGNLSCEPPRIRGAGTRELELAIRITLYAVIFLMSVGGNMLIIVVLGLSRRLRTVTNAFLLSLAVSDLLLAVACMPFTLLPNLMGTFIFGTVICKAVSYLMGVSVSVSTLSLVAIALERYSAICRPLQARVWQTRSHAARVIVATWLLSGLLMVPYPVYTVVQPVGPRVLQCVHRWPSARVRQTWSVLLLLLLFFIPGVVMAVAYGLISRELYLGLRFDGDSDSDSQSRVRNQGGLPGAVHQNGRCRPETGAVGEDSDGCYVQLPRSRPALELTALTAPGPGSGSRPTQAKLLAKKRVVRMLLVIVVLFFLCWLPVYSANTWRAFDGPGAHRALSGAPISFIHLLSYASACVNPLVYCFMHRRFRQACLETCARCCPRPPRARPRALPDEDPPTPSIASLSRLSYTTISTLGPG

OX2 = biological target: T4, OX2 (Homo sapiens, UniProt O43614); experiment: FLIPR functional screen; assay type: cell-based; details: antagonist mode
T4 construct: Millipore

CB1 = biological target: T5, CB1 (Homo sapiens, UniProt P21554); experiment: FLIPR functional screen; assay type: cell-based; details: antagonist mode
T5 construct: Millipore
T5 sequence (P21554 whole entry, species assumed): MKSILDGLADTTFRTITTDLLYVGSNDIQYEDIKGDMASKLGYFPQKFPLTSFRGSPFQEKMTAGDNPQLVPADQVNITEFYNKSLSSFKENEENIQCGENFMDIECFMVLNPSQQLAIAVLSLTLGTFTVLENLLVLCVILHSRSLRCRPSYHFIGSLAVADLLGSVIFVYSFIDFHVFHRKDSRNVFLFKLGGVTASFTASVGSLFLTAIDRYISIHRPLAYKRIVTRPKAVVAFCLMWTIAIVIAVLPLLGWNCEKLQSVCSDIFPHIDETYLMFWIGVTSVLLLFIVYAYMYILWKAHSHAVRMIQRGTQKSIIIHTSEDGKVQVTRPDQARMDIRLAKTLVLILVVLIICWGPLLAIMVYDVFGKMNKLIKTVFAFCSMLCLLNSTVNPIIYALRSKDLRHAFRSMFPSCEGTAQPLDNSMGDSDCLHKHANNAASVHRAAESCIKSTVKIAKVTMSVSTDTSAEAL

S1P4 = biological target: T6, S1P4 (Homo sapiens, UniProt O95977); experiment: FLIPR functional screen; assay type: cell-based; details: antagonist mode
T6 construct: Millipore
T6 sequence (O95977 whole entry, species assumed): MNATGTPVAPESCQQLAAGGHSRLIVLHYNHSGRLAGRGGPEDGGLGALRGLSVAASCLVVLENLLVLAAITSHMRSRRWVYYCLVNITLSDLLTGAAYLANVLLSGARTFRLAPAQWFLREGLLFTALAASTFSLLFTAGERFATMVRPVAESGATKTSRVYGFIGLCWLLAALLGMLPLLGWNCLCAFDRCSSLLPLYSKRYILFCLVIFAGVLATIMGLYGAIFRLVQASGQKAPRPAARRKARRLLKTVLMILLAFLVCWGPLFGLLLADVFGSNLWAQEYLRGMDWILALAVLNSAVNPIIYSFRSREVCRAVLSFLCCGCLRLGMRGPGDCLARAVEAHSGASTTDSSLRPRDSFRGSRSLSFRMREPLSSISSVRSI

CCR8 = biological target: T7, CCR8 (Homo sapiens, UniProt P51685); experiment: FLIPR functional screen; assay type: cell-based; details: antagonist mode
T7 construct: Millipore

5-HT1A = biological target: T8, 5-HT1A (Homo sapiens, UniProt P08908); experiment: FLIPR functional screen; assay type: cell-based; details: antagonist mode
T8 construct: purchased Millipore (outsourced screen)

ADRA2A = biological target: T9, ADRA2A (Homo sapiens, UniProt P08913); experiment: FLIPR functional screen; assay type: cell-based; details: antagonist mode
T9 construct: purchased Millipore (outsourced screen)
T9 sequence (P08913 whole entry): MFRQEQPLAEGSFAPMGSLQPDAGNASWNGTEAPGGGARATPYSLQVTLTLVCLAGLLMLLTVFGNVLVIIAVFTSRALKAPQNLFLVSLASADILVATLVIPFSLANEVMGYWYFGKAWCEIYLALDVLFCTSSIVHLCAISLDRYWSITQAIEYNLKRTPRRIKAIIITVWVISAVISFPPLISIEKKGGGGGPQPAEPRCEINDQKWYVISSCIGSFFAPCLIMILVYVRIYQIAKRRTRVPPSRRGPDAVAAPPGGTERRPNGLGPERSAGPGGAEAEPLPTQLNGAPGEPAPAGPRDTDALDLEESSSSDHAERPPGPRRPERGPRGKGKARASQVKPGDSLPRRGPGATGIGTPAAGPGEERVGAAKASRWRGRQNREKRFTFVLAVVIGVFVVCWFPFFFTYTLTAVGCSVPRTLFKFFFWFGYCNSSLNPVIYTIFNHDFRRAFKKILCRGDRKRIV

H3 = biological target: T10, H3 (Homo sapiens, UniProt Q9Y5N1); experiment: FLIPR functional screen; assay type: cell-based; details: antagonist mode
T10 construct: Millipore

SECRETIN = biological target: T11, SECRETIN (Homo sapiens, UniProt P47872); experiment: FLIPR functional screen; assay type: cell-based; details: antagonist mode
T11 construct: Millipore

C5AR = biological target: T12, C5AR (Homo sapiens, UniProt P21730); experiment: FLIPR functional screen; assay type: cell-based; details: antagonist mode
T12 construct: Millipore

MOTILIN = biological target: T13, MOTILIN (Homo sapiens, UniProt O43193); experiment: FLIPR functional screen; assay type: cell-based; details: antagonist mode
T13 construct: Millipore
T13 sequence (O43193 whole entry): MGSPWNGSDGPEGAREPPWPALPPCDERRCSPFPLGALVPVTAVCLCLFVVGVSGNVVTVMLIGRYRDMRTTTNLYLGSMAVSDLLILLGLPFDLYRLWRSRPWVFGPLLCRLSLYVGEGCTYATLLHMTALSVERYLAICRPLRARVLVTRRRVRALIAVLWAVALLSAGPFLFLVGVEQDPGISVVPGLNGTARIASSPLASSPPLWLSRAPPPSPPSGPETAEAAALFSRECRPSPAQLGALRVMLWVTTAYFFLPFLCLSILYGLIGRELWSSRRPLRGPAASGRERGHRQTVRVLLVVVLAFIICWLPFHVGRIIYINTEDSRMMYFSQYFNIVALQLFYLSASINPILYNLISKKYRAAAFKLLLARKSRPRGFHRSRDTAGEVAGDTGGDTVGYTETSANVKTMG

NTR1 = biological target: T14, NTR1 (Homo sapiens, UniProt P30989); experiment: FLIPR functional screen; assay type: cell-based; details: antagonist mode
T14 construct: Millipore

IP1 = biological target: T15, IP1 (Homo sapiens, UniProt P43119); experiment: FLIPR functional screen; assay type: cell-based; details: antagonist mode
T15 construct: Millipore

FPR2 = biological target: T16, FPR2 (Homo sapiens, UniProt P25090); experiment: FLIPR functional screen; assay type: cell-based; details: antagonist mode
T16 construct: Millipore

GABA = biological target: T17, GABA (Homo sapiens, UniProt Q9UBS5); experiment: FLIPR functional screen; assay type: cell-based; details: antagonist mode
T17 construct: Millipore

NMU1 = biological target: T18, NMU1 (Homo sapiens, UniProt Q9HB89); experiment: FLIPR functional screen; assay type: cell-based; details: antagonist mode
T18 construct: Millipore

CCR2B = biological target: T19, CCR2B (Homo sapiens, UniProt P41597); experiment: FLIPR functional screen; assay type: cell-based; details: antagonist mode
T19 construct: Millipore

Prostanoid CRTH2 = biological target: T20, Prostanoid CRTH2 (Homo sapiens, UniProt Q9Y5Y4); experiment: Competitive radioligand binding (MDS Pharma)
T20 construct: purchased MDS Pharma (outsourced assay)
T20 sequence (Q9Y5Y4 whole entry): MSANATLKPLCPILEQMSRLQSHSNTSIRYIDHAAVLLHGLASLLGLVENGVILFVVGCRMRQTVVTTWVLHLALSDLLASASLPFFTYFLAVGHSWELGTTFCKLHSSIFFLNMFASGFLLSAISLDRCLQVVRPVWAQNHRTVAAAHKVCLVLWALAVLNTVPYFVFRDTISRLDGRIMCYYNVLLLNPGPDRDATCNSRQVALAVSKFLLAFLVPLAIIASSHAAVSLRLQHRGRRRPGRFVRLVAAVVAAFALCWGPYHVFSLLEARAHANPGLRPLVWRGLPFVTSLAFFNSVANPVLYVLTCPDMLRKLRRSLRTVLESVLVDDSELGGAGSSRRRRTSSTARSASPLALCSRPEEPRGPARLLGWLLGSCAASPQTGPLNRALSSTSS

VPAC2 = biological target: T21, VPAC2 (Homo sapiens, UniProt P41587); experiment: FLIPR functional screen; assay type: cell-based; details: antagonist mode
T21 construct: Millipore

EP4 = biological target: T22, EP4 (Homo sapiens, UniProt P35408); experiment: FLIPR functional screen; assay type: cell-based
T22 construct: SE302 cells that express endogenous EP4; endogenous in cells; host or cells: SE302 cells
T22 sequence (P35408 whole entry): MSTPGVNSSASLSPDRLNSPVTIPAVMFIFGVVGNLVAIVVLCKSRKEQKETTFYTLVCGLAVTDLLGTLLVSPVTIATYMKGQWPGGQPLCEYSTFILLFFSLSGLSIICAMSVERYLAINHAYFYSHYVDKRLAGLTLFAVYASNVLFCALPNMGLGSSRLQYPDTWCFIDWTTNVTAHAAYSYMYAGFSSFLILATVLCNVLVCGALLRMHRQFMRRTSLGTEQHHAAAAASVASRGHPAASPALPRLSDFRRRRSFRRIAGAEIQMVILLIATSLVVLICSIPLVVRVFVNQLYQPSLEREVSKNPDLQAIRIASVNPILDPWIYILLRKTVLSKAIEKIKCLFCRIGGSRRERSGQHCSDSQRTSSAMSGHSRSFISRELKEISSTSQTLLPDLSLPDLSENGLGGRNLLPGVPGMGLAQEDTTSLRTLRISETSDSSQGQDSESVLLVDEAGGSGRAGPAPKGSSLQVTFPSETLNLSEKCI

D2 = biological target: T23, D2 (Homo sapiens, UniProt P14416); experiment: FLIPR functional screen; assay type: cell-based; details: antagonist mode
T23 construct: Millipore

CCR6 = biological target: T24, CCR6 (Homo sapiens, UniProt P51684); experiment: FLIPR functional screen; assay type: cell-based; details: antagonist mode
T24 construct: Millipore
T24 sequence (P51684 whole entry): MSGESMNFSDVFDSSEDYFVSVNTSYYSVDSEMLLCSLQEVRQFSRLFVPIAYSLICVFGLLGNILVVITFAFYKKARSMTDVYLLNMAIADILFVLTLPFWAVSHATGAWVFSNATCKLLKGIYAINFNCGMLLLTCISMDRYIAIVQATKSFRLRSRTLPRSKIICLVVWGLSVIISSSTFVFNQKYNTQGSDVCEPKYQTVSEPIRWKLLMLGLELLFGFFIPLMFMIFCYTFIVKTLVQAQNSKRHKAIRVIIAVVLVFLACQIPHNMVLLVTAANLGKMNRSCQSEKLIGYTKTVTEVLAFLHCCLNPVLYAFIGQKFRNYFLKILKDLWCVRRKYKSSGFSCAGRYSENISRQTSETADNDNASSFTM

S1P3 = biological target: T25, S1P3 (Homo sapiens, UniProt Q99500); experiment: FLIPR functional screen; assay type: cell-based; details: antagonist mode
T25 construct: Millipore
T25 sequence (Q99500 whole entry, species assumed): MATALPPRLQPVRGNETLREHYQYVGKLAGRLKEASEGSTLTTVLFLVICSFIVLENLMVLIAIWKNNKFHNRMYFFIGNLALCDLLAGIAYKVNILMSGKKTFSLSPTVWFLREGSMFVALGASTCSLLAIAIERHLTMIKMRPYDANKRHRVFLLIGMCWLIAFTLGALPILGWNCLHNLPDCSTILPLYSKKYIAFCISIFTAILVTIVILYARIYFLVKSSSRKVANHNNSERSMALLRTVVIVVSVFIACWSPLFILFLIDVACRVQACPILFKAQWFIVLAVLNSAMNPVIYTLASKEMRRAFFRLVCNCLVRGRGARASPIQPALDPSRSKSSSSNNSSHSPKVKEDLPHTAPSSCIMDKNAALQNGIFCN

CGRP1 = biological target: T26, CGRP1 (Homo sapiens, UniProt O60894+Q16602); experiment: FLIPR functional screen; assay type: cell-based; details: antagonist mode
T26 construct: Millipore

GAL2 = biological target: T27, GAL2 (Homo sapiens, UniProt O43603); experiment: FLIPR functional screen; assay type: cell-based; details: antagonist mode
T27 construct: Millipore

D5 = biological target: T28, D5 (Homo sapiens, UniProt P21918); experiment: FLIPR functional screen; assay type: cell-based; details: antagonist mode
T28 construct: Millipore

PRP = biological target: T29, PRP (Homo sapiens, UniProt P49683); experiment: FLIPR functional screen; assay type: cell-based; details: antagonist mode
T29 construct: Millipore

H2 = biological target: T30, H2 (Homo sapiens, UniProt P25021); experiment: FLIPR functional screen; assay type: cell-based; details: antagonist mode
T30 construct: Millipore
T30 sequence (P25021 whole entry): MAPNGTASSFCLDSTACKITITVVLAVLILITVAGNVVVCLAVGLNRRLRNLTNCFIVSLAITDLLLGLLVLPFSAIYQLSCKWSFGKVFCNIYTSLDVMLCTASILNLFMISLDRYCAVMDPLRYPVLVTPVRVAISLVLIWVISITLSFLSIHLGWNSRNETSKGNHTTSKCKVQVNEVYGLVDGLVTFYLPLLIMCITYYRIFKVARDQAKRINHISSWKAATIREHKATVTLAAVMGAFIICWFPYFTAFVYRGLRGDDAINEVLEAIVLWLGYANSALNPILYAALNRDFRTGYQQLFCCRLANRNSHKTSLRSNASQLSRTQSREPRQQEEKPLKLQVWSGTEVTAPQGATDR

SST5 = biological target: T31, SST5 (Homo sapiens, UniProt P35346); experiment: FLIPR functional screen; assay type: cell-based; details: antagonist mode
T31 construct: Millipore

OX1 = biological target: T32, OX1 (Homo sapiens, UniProt O43613); experiment: FLIPR functional screen; assay type: cell-based; details: antagonist mode
T32 construct: Millipore

OPRD1 = biological target: T33, OPRD1 (Homo sapiens, UniProt P41143); experiment: FLIPR functional screen; assay type: cell-based; details: antagonist mode
T33 construct: Millipore

Y1 = biological target: T34, Y1 (Homo sapiens, UniProt P25929); experiment: FLIPR functional screen; assay type: cell-based; details: antagonist mode
T34 construct: Millipore

CXCR1 = biological target: T35, CXCR1 (Homo sapiens, UniProt P25024); experiment: FLIPR functional screen; assay type: cell-based; details: antagonist mode
T35 construct: Millipore
T35 sequence (P25024 whole entry, species assumed): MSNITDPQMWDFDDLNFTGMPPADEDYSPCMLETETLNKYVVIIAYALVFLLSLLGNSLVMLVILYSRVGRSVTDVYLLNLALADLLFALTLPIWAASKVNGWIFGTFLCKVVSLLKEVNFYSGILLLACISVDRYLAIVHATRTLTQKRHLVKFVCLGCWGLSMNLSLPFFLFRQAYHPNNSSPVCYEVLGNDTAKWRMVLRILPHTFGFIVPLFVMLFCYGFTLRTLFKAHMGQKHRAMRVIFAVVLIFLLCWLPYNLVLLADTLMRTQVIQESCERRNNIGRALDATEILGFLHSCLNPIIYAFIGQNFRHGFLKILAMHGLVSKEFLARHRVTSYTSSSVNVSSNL

CRTH2 = biological target: T36, CRTH2 (Homo sapiens, UniProt Q9Y5Y4); experiment: FLIPR functional screen; assay type: cell-based; details: antagonist mode
T36 construct: Millipore

ADRB2 = biological target: T37, ADRB2 (Homo sapiens, UniProt P07550); experiment: FLIPR functional screen; assay type: cell-based; details: antagonist mode
T37 construct: purchased Millipore (outsourced screen)

ETA = biological target: T38, ETA (Homo sapiens, UniProt P25101); experiment: FLIPR functional screen; assay type: cell-based; details: antagonist mode
T38 construct: Millipore
T38 sequence (P25101 21-427): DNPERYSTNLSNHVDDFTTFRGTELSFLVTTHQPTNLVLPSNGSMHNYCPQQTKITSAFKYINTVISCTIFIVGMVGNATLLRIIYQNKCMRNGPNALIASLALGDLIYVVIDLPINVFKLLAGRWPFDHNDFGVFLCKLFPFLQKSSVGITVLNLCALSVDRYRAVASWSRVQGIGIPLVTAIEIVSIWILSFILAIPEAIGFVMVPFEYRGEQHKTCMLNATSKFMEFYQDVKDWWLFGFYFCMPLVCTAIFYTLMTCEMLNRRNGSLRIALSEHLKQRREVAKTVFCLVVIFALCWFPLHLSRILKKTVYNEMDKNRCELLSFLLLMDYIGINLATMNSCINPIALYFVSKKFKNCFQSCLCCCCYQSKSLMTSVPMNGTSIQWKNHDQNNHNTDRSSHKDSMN

GPR68 = biological target: T39, GPR68 (Homo sapiens, UniProt Q15743); experiment: FLIPR functional screen; assay type: cell-based; details: antagonist mode
T39 construct: Millipore

AT1 = biological target: T40, AT1 (Homo sapiens, UniProt P30556); experiment: FLIPR functional screen; assay type: cell-based; details: antagonist mode
T40 construct: purchased Millipore (outsourced screen)

SMILES: CCN1C(=O)N2Cc3cc(OC)cc(OC)c3[C@@H](C)C=C2C12CCN(Cc1cccn1C)CC2 [ER-819924-01]
- inhibition at 1 µM (A3): 10.6%
- inhibition at 1 µM (CXCR3): 3.2%
- inhibition at 1 µM (CCK2): -0.4%
- inhibition at 1 µM (OX2): 8.8%
- inhibition at 1 µM (CB1): 10.5%
- inhibition at 1 µM (S1P4): -6.6%
- inhibition at 1 µM (CCR8): 2.9%
- inhibition at 1 µM (5-HT1A): -1.6%
- inhibition at 1 µM (ADRA2A): 3.3%
- inhibition at 1 µM (H3): -31.5%
- inhibition at 1 µM (SECRETIN): 11.3%
- inhibition at 1 µM (C5AR): 6.2%
- inhibition at 1 µM (MOTILIN): -0.9%
- inhibition at 1 µM (NTR1): 0.5%
- inhibition at 1 µM (IP1): 9.8%
- inhibition at 1 µM (FPR2): 6.9%
- inhibition at 1 µM (GABA): 6%
- inhibition at 1 µM (NMU1): -14%
- inhibition at 1 µM (CCR2B): 3.7%
- % INHIBITION (Prostanoid CRTH2; CONC. 0.1 μm): 8%
- % INHIBITION (Prostanoid CRTH2; CONC. 1 μm): −5%
- inhibition at 1 µM (VPAC2): -3.7%
- activity in FLIPR functional screen versus other GPCR's (EP4; 1 μM, Millipore outsourced data): showed activity only against the EP4 receptor
- inhibition at 1 µM (EP4; antagonist mode): 100%
- inhibition at 1 µM (D2): -4.6%
- inhibition at 1 µM (CCR6): -4.9%
- inhibition at 1 µM (S1P3): 8.9%
- inhibition at 1 µM (CGRP1): -5.6%
- inhibition at 1 µM (GAL2): 8.1%
- inhibition at 1 µM (D5): 34.7%
- inhibition at 1 µM (PRP): 5.4%
- inhibition at 1 µM (H2): 1.8%
- inhibition at 1 µM (SST5): 0.1%
- inhibition at 1 µM (OX1): 0.7%
- inhibition at 1 µM (OPRD1): 5.7%
- inhibition at 1 µM (Y1): -22.7%
- inhibition at 1 µM (CXCR1): 3.9%
- inhibition at 1 µM (CRTH2): 4.1%
- inhibition at 1 µM (ADRB2): -2.3%
- inhibition at 1 µM (ETA): 9%
- inhibition at 1 µM (GPR68): 13.4%
- inhibition at 1 µM (AT1): -1.5%
